From patent publication US20180162862A1 (President and Fellows of Harvard College, priority 2015, published 2018) come the findings set out here.

The target in one test is S. aureus SgtB (Staphylococcus aureus, UniProt Q99T05). The test can be described thus: Dose-dependent displacement of probe CMG121 from S. aureus SgtB by fluorescence polarization. Further details: made in house. It is filed as binding. Here is the method: I. Dose-Dependent Displacement of CMG121 from S. aureus SgtB by Fluorescence Polarization
A black 384 well plate (Corning NBS Low Volume No. 3820) was filled (10 μL per well) with an equilibrated solution containing 10 mM TRIS (pH=8.0), 100 mM NaCl, 75 nM CMG121, and 1.0-1.5 μM S. aureus SgtB (depending on protein batch). Due to presence of 8 mM CHAPS detergent in the buffer of the S. aureus SgtB stock, the final assay solution contains 100-160 μM CHAPS. Using an HP D300 Digital Dispenser, for each compound a 1/1 dilution series (12 wells) of the primary hit compound in DMSO (normalized to 1 μL with DMSO) was prepared and added to the aforementioned assay solution. The plate was incubated at 4° C. for 30 min and read with a Perkin Elmer EnVision microplate reader (FP-read out, excitation: 480 nm; emission: 535 nm).
FIGS. 10A-E show values of reduction of fluorescence polarization for exemplified compounds. […] In the primary assay, FP was read after 30 min at 4° C., compound concentration was ca. 100 μM, and 90% reduction in FP was threshold for scoring hits (Gampe et al., J. Am. Chem. Soc. 2013, 135 (10), 3776-3779; U.S. Provisional Patent Application, U.S. Ser. No. 61/621,229, filed on Apr. 6, 2012; International Application No. PCT/US2013/030800 filed on Mar. 13, 2013).
The values were determined in two independent experiments. IC50=10 μM; Hill slope: −0.92.

The next test has as its system S. aureus ATCC 43300. The test can be described thus: MIC test according to CLSI M7-A9, S. aureus ATCC 43300. It is filed as cell-based. As to conditions: Staphylococcus aureus, read-out: S. aureus ATCC 43300 MIC at 24 h. Put shortly: (§1)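 Per CLSI M7-A9, DMSO stocks diluted in cation-adjusted Mueller Hinton broth, plates incubated 24 h at 37 °C in air. MIC is the lowest concentration giving complete inhibition of visible growth, read visually and at 600 nm.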

Another test concerns MSSA Newman. Nature of the test: MIC test in TSB medium with MTT staining, MSSA Newman. It is filed as cell-based, Staphylococcus aureus. As to conditions: Staphylococcus aureus. As to the method:
MIC Test (Methicillin Susceptible Staphylococcus aureus (MSSA Newman))
Overnight cultures of MSSA Newman were grown up in TSB medium at 37° C. The cultures obtained were normalized with TSB to OD600=0.6 and diluted 100-fold. 1.5 μL of a dilution series of Example Compounds in DMSO (100×, in duplicate), and the diluted bacterial culture (150 μL) was added to wells of a sterile, clear 96 well plate and incubated at 37° C.

The next test deals with S. aureus ATCC 29213. Nature of the test: MIC test according to CLSI M7-A9, S. aureus ATCC 29213. It is filed as cell-based. As to conditions: Staphylococcus aureus, read-out: S. aureus ATCC 29213 MIC at 24 h. In outline: as §1
For a further test, the system named is H. influenzae ATCC 49247. Nature of the test: MIC test according to CLSI M7-A9, H. influenzae ATCC 49247. It is filed as cell-based. As to conditions: Haemophilus influenzae, ATCC49247; CLSI M7-A9, Haemophilus Test Medium, 24 h. As to the method:
MIC Test (H. influenzae ATCC 49247)
Susceptibility testing of H. influenzae ATCC 49247 was performed according to Clinical Laboratory Standard Institute (CLSI) guidelines M7-A9. Test articles were stored at room temperature prior to use, then dissolved in filtered sterile DMSO. Stock DMSO solutions were diluted further in Haemophilus Test Medium (HTM) to provide appropriate test concentrations. Cultures of H. influenzae ATCC 49247 were added in accordance with CLSI guidelines and plates incubated at 37° C. in air for 24 h. Endpoints were determined visually (and by spectrophotometer at 600 nm) and the minimum inhibitory concentration (MIC) defined as the lowest concentration of test articles resulting in complete inhibition of visible bacterial growth.

[1] abbreviates: ATCC43300, CLSI M7-A9, CAMHB, 24 h (Table 2).
Where [2] appears, read: TSB, 37° C., MTT staining after 7 h, read-out: MSSA Newman MIC at 7 h.
[3] abbreviates: TSB, 37° C., MTT staining after 24 h, read-out: MSSA Newman MIC at 24 h.
Setting [4] is: ATCC29213, CLSI M7-A9, CAMHB, 24 h (Table 2).

Values after ≈ are worked out from the molar mass of the structure shown. Read-outs that look alike come from different tables or passages of the source.

S. aureus SgtB, sequence (Q99T05 68-269): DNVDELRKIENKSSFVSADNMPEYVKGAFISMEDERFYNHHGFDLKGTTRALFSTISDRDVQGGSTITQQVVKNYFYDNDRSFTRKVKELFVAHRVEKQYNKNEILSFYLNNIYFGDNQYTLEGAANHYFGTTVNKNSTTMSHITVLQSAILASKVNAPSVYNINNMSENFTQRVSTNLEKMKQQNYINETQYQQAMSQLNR

For `Cc1ccc(CSc2nc(-c3ccc(C(C)(C)C)cc3)nc3cc(=O)[nH]n23)cc1` [Entry 9], the IC50 at S. aureus SgtB is 112 µM.
On the same count and under the same terms, as for `COc1ccc(CNc2nc(-c3ccc(C(C)(C)C)cc3)nc3cc(=O)[nH]n23)cc1` [Entry 14], the figure is > 200 µM; as for `CNc1nc(-c2ccc(C(C)(C)C)cc2)nc2cc(=O)[nH]n12` [Entry 16], > 200 µM; as for `CC(C)(C)c1ccc(-c2nc(N)n3[nH]c(=O)cc3n2)cc1` [Entry 17], > 200 µM.
For the molecule `CC(C)(C)c1ccc(-c2nc(O)n3[nH]c(=O)cc3n2)cc1` [Entry 18], the IC50 on S. aureus SgtB came out at 34 µM.
Turning to `CC(C)(C)c1ccc(-c2nc3cc(=O)[nH]n3c(=S)[nH]2)cc1` [Example 1, 2-(4-tert-butylphenyl)-4-sulfanylidene-3H,4H,6H,7H-pyrazolo[1,5-a][1,3,5]triazin-7-one], the MIC came out at 16 µg/mL (≈ 53.3 µM) in the test on S. aureus ATCC 43300 (setting [1]), 12.5 µg/mL (≈ 41.6 µM) with MSSA Newman (setting [2]), 12.5 µg/mL (≈ 41.6 µM) in the test on MSSA Newman (setting [3]) and 16 µg/mL (≈ 53.3 µM) in the test with S. aureus ATCC 29213 (setting [4]).
For the molecule `Cc1cc(OCCCSc2nc(-c3ccc(C(C)(C)C)cc3)nc3cc(=O)[nH]n23)ccc1Cl` [Example 2, 2-(4-tert-butylphenyl)-4-{[3-(4-chloro-3-methylphenoxy)propyl]sulfanyl}-6H,7H-pyrazolo[1,5-a][1,3,5]triazin-7-one], the MIC with S. aureus ATCC 43300 (ATCC43300, 24 h) is > 32 µg/mL; in the test on MSSA Newman (7 h, read-out: MSSA Newman MIC at 7 h), > 100 µg/mL; in the test on S. aureus ATCC 29213 (ATCC29213, 24 h) it was > 32 µg/mL.
Turning to `Cc1cc(OCCCNc2nc(-c3ccc(C(C)(C)C)cc3)nc3cc(=O)[nH]n23)ccc1Cl` [Example 14, 2-(4-tert-butylphenyl)-4-{[3-(4-chloro-3-methylphenoxy)propyl]amino}-6H,7H-pyrazolo[1,5-a][1,3,5]triazin-7-one], the MIC came out at 4 µg/mL (≈ 8.58 µM) in the test on S. aureus ATCC 43300 (setting [1]), 3.3 µg/mL (≈ 7.08 µM) with MSSA Newman (setting [2]), 3.3 µg/mL (≈ 7.08 µM) in the test on MSSA Newman (setting [3]) and 4 µg/mL (≈ 8.58 µM) with S. aureus ATCC 29213 (setting [4]).
Regarding `COc1ccc(CNc2nc(-c3ccc(C(C)(C)C)cc3)nc3cc(=O)[nH]n23)cc1` [Example 15, 2-(4-tert-butylphenyl)-4-{[(4-methoxyphenyl)methyl]amino}-6H,7H-pyrazolo[1,5-a][1,3,5]triazin-7-one], the MIC in the test with S. aureus ATCC 43300 (setting [1]) was 8 µg/mL (≈ 19.8 µM); with MSSA Newman (setting [2]), 3.1 µg/mL (≈ 7.68 µM); in the test on MSSA Newman (setting [3]), 12.5 µg/mL (≈ 31 µM); in the test with S. aureus ATCC 29213 (setting [4]), 8 µg/mL (≈ 19.8 µM).
Regarding `CN1CCC(Nc2nc(-c3ccc(C(C)(C)C)cc3)nc3cc(=O)[nH]n23)CC1` [Example 19, 2-(4-tert-butylphenyl)-4-[(1-methylpiperidin-4-yl)amino]-6H,7H-pyrazolo[1,5-a][1,3,5]triazin-7-one], the MIC in the test with S. aureus ATCC 43300 (setting [1]), in the test on S. aureus ATCC 29213 (setting [4]) and against H. influenzae ATCC 49247 was 64 µg/mL (≈ 168 µM) in each case.
`COCCCNc1nc(-c2ccc(C(C)(C)C)cc2)nc2cc(=O)[nH]n12` [Example 27, 2-(4-tert-butylphenyl)-4-[(3-methoxypropyl)amino]-6H,7H-pyrazolo[1,5-a][1,3,5]triazin-7-one]: the MIC with S. aureus ATCC 43300 (setting [1]) is > 32 µg/mL; in the test with MSSA Newman (setting [2]) it was 50 µg/mL (≈ 141 µM); in the test on MSSA Newman (setting [3]), 100 µg/mL (≈ 281 µM); in the test on S. aureus ATCC 29213 (setting [4]) it was > 32 µg/mL.
As for `CCCC(C)Nc1nc(-c2ccc(C(C)(C)C)cc2)nc2cc(=O)[nH]n12` (stereo not drawn) [Example 28, 2-(4-tert-butylphenyl)-4-[(pentan-2-yl)amino]-6H,7H-pyrazolo[1,5-a][1,3,5]triazin-7-one], the MIC amounted to 16 µg/mL (≈ 45.3 µM) with S. aureus ATCC 43300 (setting [1]), 3.1 µg/mL (≈ 8.77 µM) in the test with MSSA Newman (setting [2]), 6.2 µg/mL (≈ 17.5 µM) with MSSA Newman (setting [3]) and 16 µg/mL (≈ 45.3 µM) in the test on S. aureus ATCC 29213 (setting [4]).
In the case of `CC(C)(C)c1ccc(-c2nc(NCCCCc3ccccc3)n3[nH]c(=O)cc3n2)cc1` [Example 29, 2-(4-tert-butylphenyl)-4-[(4-phenylbutyl)amino]-6H,7H-pyrazolo[1,5-a][1,3,5]triazin-7-one], the MIC in the test on S. aureus ATCC 43300 (setting [1]) came to 16 µg/mL (≈ 38.5 µM); in the test with MSSA Newman (setting [2]), 1.6 µg/mL (≈ 3.85 µM); with MSSA Newman (setting [3]), 3.1 µg/mL (≈ 7.46 µM); in the test on S. aureus ATCC 29213 (setting [4]) it was 8 µg/mL (≈ 19.3 µM).
Taken in the same sequence, the figures for `Cc1cccc(OCCCNc2nc(-c3ccc(C(C)(C)C)cc3)nc3cc(=O)[nH]n23)c1C` [Example 30, 2-(4-tert-butylphenyl)-4-{[3-(2,3-dimethylphenoxy)propyl]amino}-6H,7H-pyrazolo[1,5-a][1,3,5]triazin-7-one] were > 32 µg/mL, 1.6 µg/mL (≈ 3.59 µM), 6.2 µg/mL (≈ 13.9 µM) and > 32 µg/mL.
As for `CC(C)(C)c1ccc(-c2nc(NCCCOC3CCCCC3)n3[nH]c(=O)cc3n2)cc1` [Example 31, 2-(4-tert-butylphenyl)-4-{[3-(cyclohexyloxy)propyl]amino}-6H,7H-pyrazolo[1,5-a][1,3,5]triazin-7-one], the MIC with S. aureus ATCC 43300 (setting [1]) was found to be 16 µg/mL (≈ 37.8 µM); with S. aureus ATCC 29213 (setting [4]), 8 µg/mL (≈ 18.9 µM); in the test on H. influenzae ATCC 49247 it was 32 µg/mL (≈ 75.5 µM).
`Cc1cc(NCCCNc2nc(-c3ccc(C(C)(C)C)cc3)nc3cc(=O)[nH]n23)ccc1Cl` [Example 47, 2-(4-tert-butylphenyl)-4-({3-[(4-chloro-3-methylphenyl)amino]propyl}amino)-6H,7H-pyrazolo[1,5-a][1,3,5]triazin-7-one]: the MIC in the test on S. aureus ATCC 43300 (setting [1]) was determined as 4 µg/mL (≈ 8.6 µM); in the test with MSSA Newman (setting [2]), 3.1 µg/mL (≈ 6.67 µM); with MSSA Newman (setting [3]) it was 3.1 µg/mL (≈ 6.67 µM); in the test on S. aureus ATCC 29213 (setting [4]), 2 µg/mL (≈ 4.3 µM).
Consider `Cc1ccc(OCCCNc2nc(-c3ccc(C(C)(C)C)cc3)nc3cc(=O)[nH]n23)cc1C` [Example 49, 2-(4-tert-butylphenyl)-4-{[3-(3,4-dimethylphenoxy)propyl]amino}-6H,7H-pyrazolo[1,5-a][1,3,5]triazin-7-one], for which the MIC with S. aureus ATCC 43300 (setting [1]) is 16 µg/mL (≈ 35.9 µM); in the test on MSSA Newman (setting [2]), 3.1 µg/mL (≈ 6.96 µM); with MSSA Newman (setting [3]) it was 6.2 µg/mL (≈ 13.9 µM); in the test on S. aureus ATCC 29213 (setting [4]) it was 32 µg/mL (≈ 71.8 µM).
On the same counts, the results for `CC(C)(C)c1ccc(-c2nc(NCCCOc3cnc(Cl)nc3)n3[nH]c(=O)cc3n2)cc1` [Example 52, 2-(4-tert-butylphenyl)-4-({3-[(2-chloropyrimidin-5-yl)oxy]propyl}amino)-6H,7H-pyrazolo[1,5-a][1,3,5]triazin-7-one] are > 64 µg/mL, 12.5 µg/mL (≈ 27.5 µM), 25 µg/mL (≈ 55.1 µM) and > 64 µg/mL.
On the same counts, the results for `Cc1ccnc(C)c1OCCCNc1nc(-c2ccc(C(C)(C)C)cc2)nc2cc(=O)[nH]n12` [Example 53, 2-(4-tert-butylphenyl)-4-({3-[(2,4-dimethylpyridin-3-yl)oxy]propyl}amino)-6H,7H-pyrazolo[1,5-a][1,3,5]triazin-7-one] are 8 µg/mL (≈ 17.9 µM), > 100 µg/mL, > 100 µg/mL and > 64 µg/mL.
Regarding `Cc1ccc(-c2nc(NCCCNc3ccc(Cl)c(C)c3)n3[nH]c(=O)cc3n2)cc1` [Example 68, 4-({3-[(4-chloro-3-methylphenyl)amino]propyl}amino)-2-(4-methylphenyl)-6H,7H-pyrazolo[1,5-a][1,3,5]triazin-7-one], the MIC was determined as 8 µg/mL (≈ 18.9 µM) with S. aureus ATCC 43300 (setting [1]), 1.6 µg/mL (≈ 3.78 µM) in the test on MSSA Newman (setting [2]), 3.1 µg/mL (≈ 7.33 µM) with MSSA Newman (setting [3]) and 16 µg/mL (≈ 37.8 µM) with S. aureus ATCC 29213 (setting [4]).
As to `Cc1cc(OCCCNc2nc(-c3cc[n+]([O-])cc3)nc3cc(=O)[nH]n23)ccc1Cl` [Example 126, 4-(4-{[3-(4-chloro-3-methylphenoxy)propyl]amino}-7-oxo-6H,7H-pyrazolo[1,5-a][1,3,5]triazin-2-yl)pyridin-1-ium-1-olate], in the test with H. influenzae ATCC 49247, the MIC amounted to 1 µg/mL (≈ 2.34 µM).
